These results are taken from US9283222B2 (priority 2006, dated 2016).

In this assay the target is Recombinant Human Poly(ADP-Ribose) Polymerase (PARP), PARP-1 (Homo sapiens (Human), UniProt P09874). As to conditions: read-out: PARP-1 (Ki); Table 1; text calls the values EC50s.

Molecules are shown by their SMILES.

Sequence of Recombinant Human Poly(ADP-Ribose) Polymerase (PARP), PARP-1 (P09874 whole entry): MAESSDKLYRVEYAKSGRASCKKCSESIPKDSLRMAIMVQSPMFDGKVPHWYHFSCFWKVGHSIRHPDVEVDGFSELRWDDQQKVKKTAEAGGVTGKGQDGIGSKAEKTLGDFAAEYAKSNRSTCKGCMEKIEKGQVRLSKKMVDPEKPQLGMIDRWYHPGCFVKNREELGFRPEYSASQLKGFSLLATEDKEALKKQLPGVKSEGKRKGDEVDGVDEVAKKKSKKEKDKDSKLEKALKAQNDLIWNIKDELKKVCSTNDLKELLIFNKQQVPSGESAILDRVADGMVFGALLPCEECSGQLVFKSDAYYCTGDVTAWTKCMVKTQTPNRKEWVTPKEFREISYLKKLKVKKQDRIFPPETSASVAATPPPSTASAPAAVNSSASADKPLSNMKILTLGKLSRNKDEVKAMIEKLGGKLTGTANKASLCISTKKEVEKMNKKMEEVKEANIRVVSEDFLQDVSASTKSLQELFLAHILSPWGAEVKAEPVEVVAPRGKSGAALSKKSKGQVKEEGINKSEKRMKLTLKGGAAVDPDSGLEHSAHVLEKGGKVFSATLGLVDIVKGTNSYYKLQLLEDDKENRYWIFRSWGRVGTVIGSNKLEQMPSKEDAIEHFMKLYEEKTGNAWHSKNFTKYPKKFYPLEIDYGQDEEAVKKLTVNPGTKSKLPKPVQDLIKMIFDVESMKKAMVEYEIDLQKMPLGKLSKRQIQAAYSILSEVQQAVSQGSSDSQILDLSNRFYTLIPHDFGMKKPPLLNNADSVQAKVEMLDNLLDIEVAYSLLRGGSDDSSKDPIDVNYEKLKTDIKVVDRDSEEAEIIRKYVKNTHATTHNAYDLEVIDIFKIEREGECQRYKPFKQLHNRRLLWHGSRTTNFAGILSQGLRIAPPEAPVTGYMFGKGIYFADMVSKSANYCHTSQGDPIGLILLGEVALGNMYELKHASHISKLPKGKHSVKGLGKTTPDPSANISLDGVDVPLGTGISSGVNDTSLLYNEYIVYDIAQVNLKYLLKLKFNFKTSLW

As a reminder, the Ki is the equilibrium dissociation constant of an inhibitor or competing ligand from its target. For `CCN(CC)C(=O)N1CCN(C(=O)c2cc(Cc3n[nH]c(=O)c4c3CCCC4)ccc2F)CC1` [Example 530, N,N-diethyl-4-{2-fluoro-5-[(4-oxo-3,4,5,6,7,8-hexahydrophthalazin-1-yl)methyl]benzoyl}piperazine-1-carboxamide], the Ki came to 0.002 µM. Take `O=C(c1cc(Cc2n[nH]c(=O)c3c2NCCC3)ccc1F)N1CCN(c2cncnc2)CC1` [Example 696, 8-{4-fluoro-3-[(4-pyrimidin-5-ylpiperazin-1-yl)carbonyl]benzyl}-2,3,4,6-tetrahydropyrido[2,3-d]pyridazin-5(1H)-one]: the Ki stood at 0.0025 µM. The figure for `O=C(c1ccc2nc[nH]c2c1)N1CCCN(C(=O)c2cc(Cc3n[nH]c(=O)c4c3NCCC4)ccc2F)CC1` [Example 686, 8-(3-{[4-(1H-benzimidazol-6-ylcarbonyl)-1,4-diazepan-1-yl]carbonyl}-4-fluorobenzyl)-2,3,4,6-tetrahydropyrido[2,3-d]pyridazin-5(1H)-one] is 0.0019 µM; for `Cn1cnc(S(=O)(=O)Nc2cccc(Cc3n[nH]c(=O)c4c3CCCC4)c2)c1` [Example 119, 1-methyl-N-(3-((4-oxo-3,4,5,6,7,8-hexahydrophthalazin-1-yl)methyl)phenyl)-1H-imidazole-4-sulfonamide] it is 0.703 µM; for `O=C(Nc1cccc(Cc2n[nH]c(=O)c3c2CCCC3)c1)c1cccnc1O` [Example 213, 2-hydroxy-N-(3-((4-oxo-3,4,5,6,7,8-hexahydrophthalazin-1-yl)methyl)phenyl)nicotinamide] it is 0.082 µM.

Take `CCN(C(C)=O)C1CCN(C(=O)c2cc(Cc3n[nH]c(=O)c4c3CCCC4)ccc2F)C1` (stereo not shown) [Example 619, N-ethyl-N-(1-{2-fluoro-5-[(4-oxo-3,4,5,6,7,8-hexahydrophthalazin-1-yl)methyl]benzoyl}pyrrolidine-3-yl)acetamide]: the Ki stood at 0.004 µM. The value for `O=C(NCc1cccs1)c1cccc(Cc2n[nH]c(=O)c3c2CCCC3)c1` [Example 309, 3-((4-oxo-3,4,5,6,7,8-hexahydrophthalazin-1-yl)methyl)-N-(thien-2-ylmethyl)benzamide] was 0.029 µM; that for `O=C(NCc1ccncc1)c1cccc(Cc2n[nH]c(=O)c3c2CCCC3)c1` [Example 312, 3-((4-oxo-3,4,5,6,7,8-hexahydrophthalazin-1-yl)methyl)-N-(pyridin-4-ylmethyl)benzamide] was 0.131 µM. The figure for `O=C(NC1CCN(C(=O)c2cc(Cc3n[nH]c(=O)c4c3NCCC4)ccc2F)CC1)c1cn[nH]c1` [Example 758, N-(1-{2-fluoro-5-[(5-oxo-1,2,3,4,5,6-hexahydropyrido[2,3-d]pyridazin-8-yl)methyl]benzoyl}piperidin-4-yl)-1H-pyrazole-4-carboxamide] is 0.0014 µM; for `N#Cc1ccc(S(=O)(=O)Nc2cccc(Cc3n[nH]c(=O)c4c3CCCC4)c2)cc1` [Example 121, 4-cyano-N-(3-((4-oxo-3,4,5,6,7,8-hexahydrophthalazin-1-yl)methyl)phenyl)benzenesulfonamide] it is 0.776 µM.

On to `CCN(C(C)=O)C1CCN(C(=O)c2cc(Cc3n[nH]c(=O)c4c3NCCC4)ccc2F)C1` (stereo not shown) [Example 596, N-ethyl-N-(1-{2-fluoro-5-[(5-oxo-1,2,3,4,5,6-hexahydropyrido[2,3-d]pyridazin-8-yl)methyl]benzoyl}pyrrolidine-3-yl)acetamide], for which the Ki amounted to 0.006 µM.

Regarding `CCN(CC)c1ccc(C(=O)Nc2cccc(Cc3n[nH]c(=O)c4c3CCCC4)c2)cc1` [Example 189, 4-(diethylamino)-N-(3-((4-oxo-3,4,5,6,7,8-hexahydrophthalazin-1-yl)methyl)phenyl)benzamide], the Ki is 0.175 µM. The figure for `Cc1cc(Cl)ccc1OCC(=O)Nc1cccc(Cc2n[nH]c(=O)c3c2CCCC3)c1` [Example 171, 2-(4-chloro-2-methylphenoxy)-N-(3-((4-oxo-3,4,5,6,7,8-hexahydrophthalazin-1-yl)methyl)phenyl)acetamide] is 0.056 µM; for `Cc1ccccc1CCNC(=O)c1cccc(Cc2n[nH]c(=O)c3c2CCCC3)c1` [Example 376, N-(2-(2-methylphenyl)ethyl)-3-((4-oxo-3,4,5,6,7,8-hexahydrophthalazin-1-yl)methyl)benzamide] it is 0.173 µM. The value for `O=C(c1ccc2ccccc2n1)N1CCN(C(=O)c2cc(Cc3n[nH]c(=O)c4c3NCCC4)ccc2F)CC1` [Example 645] was 0.0015 µM; that for `N[C@H]1CCCC[C@@H]1NC(=O)c1cc(Cc2n[nH]c(=O)c3c2NCCC3)ccc1F` [Example 740, N-[(1S,2S)-2-aminocyclohexyl]-2-fluoro-5-[(5-oxo-1,2,3,4,5,6-hexahydropyrido[2,3-d]pyridazin-8-yl)methyl]benzamide] was 0.052 µM; that for `O=C(c1cc(Cc2n[nH]c(=O)c3c2CCCC3)ccc1F)N1CCN(C(=O)N2CCOCC2)CC1` [Example 533, 4-(4-fluoro-3-{[4-(morpholin-4-ylcarbonyl)piperazin-1-yl]carbonyl}benzyl)-5,6,7,8-tetrahydrophthalazin-1(2H)-one] was 0.002 µM. `O=C(c1ccc(-c2cc(CCc3n[nH]c(=O)c4c3CCCC4)ccc2F)cc1)N1CCOCC1` [Example 267, 4-(2-(6-fluoro-4′-(morpholin-4-ylcarbonyl)-1,1′-biphenyl-3-yl)ethyl)-5,6,7,8-tetrahydrophthalazin-1(2H)-one]: the inhibitory constant (Ki) was found to be 0.534 µM.

As for `CC(C)C(=O)N1CCN(C(=O)c2cc(Cc3n[nH]c(=O)c4c3CCCC4)ccc2F)CC1` [Example 579, 4-{4-fluoro-3-[(4-isobutyrylpiperazin-1-yl)carbonyl]benzyl}-5,6,7,8-tetrahydrophthalazin-1(2H)-one], the Ki is 0.001 µM. The value for `CC(C)(C)c1ccc(NC(=O)c2cccc(Cc3n[nH]c(=O)c4c3CCCC4)c2)cc1` [Example 336, N-(4-tert-butylphenyl)-3-((4-oxo-3,4,5,6,7,8-hexahydrophthalazin-1-yl)methyl)benzamide] was 0.363 µM; that for `O=C(Nc1cccc(Cc2n[nH]c(=O)c3c2CCCC3)c1)C(c1ccccc1)c1ccccc1` [Example 174, N-(3-((4-oxo-3,4,5,6,7,8-hexahydrophthalazin-1-yl)methyl)phenyl)-2,2-diphenylacetamide] was 0.655 µM; that for `O=C(c1ccc(O)nc1)N1CCN(C(=O)c2cc(Cc3n[nH]c(=O)c4c3CCCC4)ccc2F)CC1` [Example 735, 4-[4-fluoro-3-({4-[(6-hydroxypyridin-3-yl)carbonyl]piperazin-1-yl}carbonyl)benzyl]-5,6,7,8-tetrahydrophthalazin-1(2H)-one] was 0.0015 µM. `CCc1ccccc1NC(=O)c1cccc(Cc2n[nH]c(=O)c3c2CCCC3)c1` [Example 329, N-(2-ethylphenyl)-3-((4-oxo-3,4,5,6,7,8-hexahydrophthalazin-1-yl)methyl)benzamide]: the Ki was 0.789 µM. The figure for `O=C(c1cccc(Cc2n[nH]c(=O)c3c2CCCC3)c1)N1CCN(c2ccccc2)CC1` [Example 440, 4-(3-((4-phenylpiperazin-1-yl)carbonyl)benzyl)-5,6,7,8-tetrahydrophthalazin-1(2H)-one] is 0.003 µM; for `CCOCCN1CCN(C(=O)c2cc(Cc3n[nH]c(=O)c4c3NCCC4)ccc2F)CC1` [Example 485, 8-(3-((4-(2-ethoxyethyl)piperazin-1-yl)carbonyl)-4-fluorobenzyl)-2,3,4,6-tetrahydropyrido(2,3-d)pyridazin-5(1H)-one] it is 0.014 µM. Regarding `O=C(Nc1cccc(Cc2n[nH]c(=O)c3c2CCCC3)c1)c1ncccc1O` [Example 212, 3-hydroxy-N-(3-((4-oxo-3,4,5,6,7,8-hexahydrophthalazin-1-yl)methyl)phenyl)pyridine-2-carboxamide], the inhibition constant Ki was found to be 0.065 µM. As to `Cc1c(O)cccc1NC(=O)c1cccc(Cc2n[nH]c(=O)c3c2CCCC3)c1` [Example 349, N-(3-hydroxy-2-methylphenyl)-3-((4-oxo-3,4,5,6,7,8-hexahydrophthalazin-1-yl)methyl)benzamide], the Ki stood at 0.055 µM. The value for `CC(C)(C)OC(=O)N1CCC(NC(=O)c2cc(Cc3n[nH]c(=O)c4c3NCCC4)ccc2F)CC1` [Example 699, tert-butyl 4-({2-fluoro-5-[(5-oxo-1,2,3,4,5,6-hexahydropyrido[2,3-d]pyridazin-8-yl)methyl]benzoyl}amino)piperidine-1-carboxylate] was 0.074 µM; that for `O=C(CCCC(=O)Nc1cc(Cc2n[nH]c(=O)c3c2CCCC3)ccc1F)Nc1ccccc1` [Example 457, N-(2-fluoro-5-((4-oxo-3,4,5,6,7,8-hexahydrophthalazin-1-yl)methyl)phenyl)-N′-phenylpentanediamide] was 0.0007 µM; that for `O=C(Nc1cc(Cc2n[nH]c(=O)c3c2CCCC3)ccc1F)N[C@@H](Cc1ccccc1)C(=O)O` [Example 628, N-[({2-fluoro-5-[(4-oxo-3,4,5,6,7,8-hexahydrophthalazin-1-yl)methyl]phenyl}amino)carbonyl]phenylalanine] was 0.054 µM.

Consider `CC(=O)c1ccc(C(=O)Nc2cccc(Cc3n[nH]c(=O)c4c3CCCC4)c2)cc1` [Example 226, 4-acetyl-N-(3-((4-oxo-3,4,5,6,7,8-hexahydrophthalazin-1-yl)methyl)phenyl)benzamide], for which the Ki was 0.04 µM. As to `O=C(Nc1cccc(Cc2n[nH]c(=O)c3c2CCCC3)c1)c1cc(C(F)(F)F)ccc1F` [Example 191, 2-fluoro-N-(3-((4-oxo-3,4,5,6,7,8-hexahydrophthalazin-1-yl)methyl)phenyl)-5-(trifluoromethyl)benzamide], the Ki was 0.031 µM. For `O=C(COc1ccc(OCc2ccccc2)cc1)Nc1cc(Cc2n[nH]c(=O)c3c2NCCC3)ccc1F` [Example 481, 2-(4-(benzyloxy)phenoxy)-N-(2-fluoro-5-((5-oxo-1,2,3,4,5,6-hexahydropyrido(2,3-d)pyridazin-8-yl)methyl)phenyl)acetamide], the Ki stood at 0.012 µM. Take `O=C(Nc1cccc(Cc2n[nH]c(=O)c3c2CCCC3)c1)c1cccc(F)c1F` [Example 181, 2,3-difluoro-N-(3-((4-oxo-3,4,5,6,7,8-hexahydrophthalazin-1-yl)methyl)phenyl)benzamide]: the Ki is 0.212 µM.
